The record followed here is PubChem BioAssay AID179 (DTP/NCI, 2004).

Where “and” joins values, the source holds several entries; their conditions need not be identical. Equal entries are not always repeated. Calls of active or inactive are those of the source.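 How the source made its calls: active means compounds giving half or more protection of infected cells from virus-caused growth loss, again on retest; inactive means the rest.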

This test relates to CEM cells HIV-1 protection, formazan growth assay. In words: NCI AIDS Antiviral Assay. To be noted: for IC50: measured here: growth of uninfected CEM cells. In short, it runs like this:
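Steps: treat uninfected and HIV-1-infected human CEM cells at five drug levels; quantify growth by soluble formazan; retest any compound reaching 50% protection; classify actives from the retest.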

Turning to `CC1(O)[C@@H]2O[C@@H]2C2(CCCO2)[C@@H]2O[C@@H]21` (some centres not stated), the EC50 (usually the midpoint of the concentration-response curve) was above 200 µM and the IC50 – broadly, the midpoint of a concentration-inhibition curve – is above 200 µM.
As for `COc1cc([N+](=O)[O-])c(S(=O)(=O)O)cc1-n1nc(-c2ccccc2)n[n+]1-c1cc(S(=O)(=O)[O-])c([N+](=O)[O-])cc1OC`, the EC50 was above 100 µM and the 50% inhibitory concentration (IC50) was above 100 µM.
With `FC(F)(F)c1nc2ccc(SSc3ccc4nc(C(F)(F)F)[nH]c4c3)cc2[nH]1`, the EC50 was above 100 µM and the IC50 was determined as 91.2 µM.
For the compound `COC(=O)c1ccc2c(c1)C(O)NC(=O)O2` (configuration not stated), the EC50 is above 200 µM and the half-inhibitory concentration (IC50) came out at 34.7 µM.
For the compound `COc1ccc2[nH]c3c4c(c5cc(C(C)(C)C)ccc5c3c2c1)C(=O)N(c1ccccc1)C4=O`, the result was inactive.
With `CC(C)c1ncc([N+](=O)[O-])n1C`, the EC50 was above 200 µM and the half-inhibitory concentration (IC50) is above 200 µM.
On to `Cc1cnc2c(ccc3c(C)c(C)c(C)nc32)c1C.Cc1cnc2c(ccc3c(C)c(C)c(C)nc32)c1C.O=C1OC(C(O)C[O-])C(O)=C1O.[Cu+]`, for which the EC50 was above 25.1 µM and the 50% inhibitory concentration (IC50) is 1.29 µM.
On the same counts, the results for `NC(=O)c1cn(C2OC(CO)C(O)C2O)c2ncnc(N)c12` (configuration not stated) are above 0.2 µM and 0.00562 µM.
As to `NC(=O)NNC/C(Cl)=C(\Cl)C(=O)O`, the EC50 was above 1100 µM and the half-inhibitory concentration (IC50) came out at 191 µM.
As for `Clc1ccc2c(c1)Sc1ccc(Cl)cc1S2`, the EC50 is above 200 µM and the IC50 is above 200 µM.
As for `CN(/N=C/c1ccnc2ccccc12)c1ccc(Cl)cc1[N+](=O)[O-]`, the EC50 was above 100 µM and the concentration for half-maximal inhibition (IC50) is 12.3 µM.
As to `Cc1ccc(N2C(=O)/C(=C/c3ccc(N(CCC#N)CCC#N)cc3)CC2(O)c2ccccc2)cc1` (configuration not stated), the EC50 was above 7.94 µM and the IC50 is above 7.94 µM.
As for `Cc1cc2ncn(-c3nc4ccccc4nc3C(C#N)S(C)(=O)=O)c2cc1C` (configuration not stated), the EC50 is above 646 µM and the IC50 turned out to be 57.5 µM.
Turning to `O=[N+]([O-])c1cccc2c(Nc3ccc(S(=O)(=O)Nc4nccs4)cc3)c3ccccc3nc12`, the EC50 is above 200 µM and the IC50 worked out at 21.9 µM.
Take `CN(C)C(=S)SN(C)C(=O)Nc1ccccc1`: the EC50 was above 200 µM and the 50% inhibitory concentration (IC50) was determined as 13.2 µM.
On the same counts, the results for `Cc1ccc(C)c(COCCOCn2cc(Br)c(N)nc2=O)c1` are above 200 µM and above 200 µM.
`O=C(Cc1nc2ccccc2s1)Nc1cccc(C(F)(F)F)c1`: the EC50 was above 21.4 µM and the IC50 turned out to be 17.4 µM.
The like results for `NC(N)=NCC[C@H](NC(=O)OCCCCCn1ccc(=O)[nH]c1=O)C(=O)O` were, in that order, above 200 µM and above 200 µM.
Regarding `Cc1cn(C2CCC(CO)O2)c(=O)[nH]c1=O` (configuration not stated), the EC50 was 162 µM and the IC50 was above 200 µM.
The like results for `COCN(C)c1nc(N(C)C)nc(N(C)C)n1` were, in that order, above 100 µM and 70.8 µM.
Turning to `CNn1c(-c2ccccc2)n[nH]c1=O`, the EC50 was 110 µM and the IC50 was found to be 151 µM.
The like results for `Cc1cn(C2CC(N(O)Cc3ccccc3)C(CO)O2)c(=O)[nH]c1=O` (configuration not stated) were, in that order, above 200 µM and above 200 µM.
Take `CN(C)C(c1ccccc1)C(O)c1ccccc1` (configuration not stated): the result was inactive.
Regarding `Nc1ccc(-c2ncc3cc(-c4cccc(-c5cc6cnc(-c7ccc(N)cc7)nc6c6ccccc56)c4)c4ccccc4c3n2)cc1`, the EC50 is above 200 µM and the half-maximal inhibitory concentration (IC50) was above 200 µM.
Consider `Cn1cnc([N+](=O)[O-])c1Sc1nc2cccnc2s1`, for which the EC50 was above 170 µM and the 50% inhibitory concentration (IC50) was 4.57 µM.
In the case of `C[C@H]1O[C@@H](C(C)(C)C)OC(=O)[C@@H]1C(OC(=O)c1ccccc1)c1cccc2ccccc12` (some centres not stated), the EC50 is above 200 µM and the half-maximal inhibitory concentration (IC50) was determined as 83.2 µM.
Take `CCCCCCCCCCCCOC1OC(COC(C)=O)C(OC(C)=O)C(OC(C)=O)C1OC(C)=O` (configuration not stated) (tested in a mixture with another compound): the EC50 was above 38 µM and the IC50 is 24 µM.
In the case of `O=C1C(Br)=C(c2ccccc2)C(c2ccccc2)=C1c1ccccc1`, the outcome was inactive.
`S=P(N1CCOCC1)(N1CC1)N1CC1`: the EC50 was above 200 µM and the half-maximal inhibitory concentration (IC50) is 5.25 µM.
Consider `Cc1nn(C)c2c1C(=O)N(C)CC(=O)N2C`, for which the EC50 was above 200 µM and the IC50 was above 200 µM.
`O=c1c2ccccc2n2nnc3ccc(NCCCNCCNCCCNc4ccc5nnn6c7ccccc7c(=O)c4c56)c1c32`: the EC50 was above 0.0501 µM and the IC50 came out at 0.0347 µM.
For the compound `CC(C)C(Sc1nc(-c2ccccc2)c(-c2ccccc2)[nH]1)C(=O)NNC(=S)Nc1ccccc1` (configuration not stated), the EC50 was above 51.3 µM and the IC50 stood at 24 µM.
On the same counts, the results for `Cc1ccc(/C=C2/N=C(N/N=C\c3ccccc3)NC2=O)cc1` are above 200 µM and 129 µM.
The like results for `O=C1CCN(CCC(F)(F)C(F)(F)C(F)(F)C(F)(F)C(F)(F)C(F)(F)F)C(=S)N1CCC(F)(F)C(F)(F)C(F)(F)C(F)(F)C(F)(F)C(F)(F)F` were, in that order, above 16.6 µM and above 16.6 µM.
Take `O=C(NC(=O)c1c(F)cccc1F)Nc1ncc(Br)cc1Br`: the EC50 is above 200 µM and the IC50 was above 200 µM.
As to `CC(=O)Oc1c(-c2ccccc2)[nH]c2cc([N+](=O)[O-])c(/C(Cl)=C/c3ccccc3)cc12`, the EC50 was above 6.31 µM and the IC50 was above 6.31 µM.
`Cc1cn(COCCCO)c(=O)[nH]c1=O`: the EC50 is above 200 µM and the IC50 was above 200 µM.
`COCCN1C(=O)C2c3[nH]c4ccccc4c3C3CCC(C(C)(C)C)CC3C2C1=O` (configuration not stated): the EC50 was above 200 µM and the IC50 was found to be 39.8 µM.
On the same counts, the results for `O=C1Cn2c(cc(=O)c3ccccc32)O1` are above 67.6 µM and above 67.6 µM.
Turning to `CC(=O)N(O)c1ccc(Cl)cc1`, the EC50 was above 200 µM and the IC50 was above 200 µM.
Regarding `Clc1ccc(-c2nn3c(CCCCCCCCc4nnc5sc(-c6ccc(Cl)cc6)nn45)nnc3s2)cc1`, the EC50 was above 200 µM and the IC50 is 19.1 µM.
With `Cc1ccccc1C(=O)NC(O)(C(F)(F)F)C(F)(F)F`, the result was inactive.
Consider `NC(CSSCC(N)=NCC12CC3CC(CC(C3)C1)C2)=NCC12CC3CC(CC(C3)C1)C2`, for which the EC50 was above 200 µM and the IC50 was determined as 30.9 µM.
As for `O=[N+]([O-])c1sc2ccc(Cl)cc2c1Nc1ccc(Cl)cc1`, the EC50 is above 200 µM and the IC50 was above 200 µM.
For `NC(=S)N/N=C1\CCc2ccccc2C1`, the EC50 was above 575 µM and the half-maximal inhibitory concentration (IC50) was 15.8 µM.
As to `Nc1nc(CCC(=O)Nc2cccc(C(F)(F)F)c2)cc(-c2ccc3ccccc3c2)n1`, the EC50 is above 575 µM and the IC50 was above 575 µM.
As for `COc1ccc(-c2coc3c4c(c(CC=C(C)C)c(O)c3c2=O)OC(C)(C)C=C4)cc1OC`, the EC50 was above 100 µM and the IC50 is above 100 µM.
Take `C=C1C(=O)OC2/C=C(\C)CC(O)/C=C(/CO)CC(OC(=O)/C(C)=C/C)C12` (configuration not stated): the EC50 is above 100 µM and the IC50 was found to be 53.7 µM.
As to `COc1ccccc1C(C1=C(O)COC1=O)c1cc2c(cc1OC(C)=O)OCO2` (configuration not stated), the EC50 was above 200 µM and the IC50 is above 200 µM.
Consider `CCn1nc(-c2ccccc2)c2c1N(C)c1ccccc1-n1c(-c3ccccc3)nnc1-2`, for which the EC50 was above 200 µM and the half-maximal inhibitory concentration (IC50) came to 26.3 µM.
For `Cc1nn(C(=O)Cc2ccccc2)c2c1C(c1ccc(O)cc1)SC(N)=N2` (configuration not stated), the 50% effective concentration (EC50) is 83.2 µM and the IC50 was above 200 µM.
Regarding `CC(=O)OC12C(C)=C(C)C(=O)N1c1ccccc1N2C(C)=O` (configuration not stated), the outcome was inactive.
With `Nc1nnc(-c2ccco2)c(-c2ccco2)n1`, the EC50 was above 200 µM and the concentration for half-maximal inhibition (IC50) was 186 µM.
On to `O=C(Nc1ccc(/C=C/c2ccc(NC(=O)c3ccccc3O)cc2S(=O)(=O)O)c(S(=O)(=O)O)c1)c1ccccc1O`, for which the EC50 was 115 µM and the IC50 was above 200 µM.
On the same counts, the results for `NC(=O)C1C(=O)c2cccc3c2C1CCCC3` (configuration not stated) are above 234 µM and 69.2 µM.
Consider `O=C(O)c1cc(Cc2cc(Cl)c(O)c(C(=O)O)c2)cc(Cl)c1O`, for which the EC50 was above 501 µM; the concentration for half-maximal inhibition (IC50) is 347 µM and 204 µM.
Consider `Oc1ccc2occ3c2c1CCC3`, for which the result was inactive.
Regarding `CC(=O)OCC(OC(C)=O)C(OC(C)=O)C(/C=N\Nc1nc2ccccc2c(=O)[nH]1)=N\Nc1nc2ccccc2c(=O)[nH]1` (configuration not stated), the EC50 is above 200 µM and the IC50 was above 200 µM.
Take `CCn1ncc(N=O)c1N`: the EC50 is above 200 µM and the 50% inhibitory concentration (IC50) is above 200 µM.
For `CC1(c2ccccc2)CCCC/C1=N/NC(N)=O` (configuration not stated), the concentration giving a half-maximal response (EC50) was 105 µM and the IC50 amounted to 129 µM.
For `CC(=O)NC1C(OCC(=O)NCCNc2ccc([N+](=O)[O-])c3[nH]c4ccccc4c(=O)c23)C(O)C(CO)OC1(C)OCc1ccccc1` (configuration not stated), the EC50 is above 200 µM and the concentration for half-maximal inhibition (IC50) was above 200 µM.
As to `O=C(N/N=C\c1ccc([N+](=O)[O-])cc1)c1ccccc1Nc1ccccc1C(=O)N/N=C/c1ccc([N+](=O)[O-])cc1`, the EC50 was 91.2 µM and the IC50 was above 200 µM.
Take `c1ccc2oc(NCCSSCCNc3nc4ccccc4o3)nc2c1`: the EC50 was above 200 µM and the IC50 worked out at 10.5 µM.
On the same counts, the results for `COc1ccc(C2OC(N)=C(C#N)C3=C2C(C)CCC3)cc1OC` (configuration not stated) are 501 µM and 631 µM.
On the same counts, the results for `C=C1CC2(OC1=O)c1ccccc1C=Cc1ccccc12` are above 26.3 µM and 4.57 µM.
As for `CC(CO)(CO)N1C(=O)c2cccc3cc([N+](=O)[O-])cc(c23)C1=O`, the EC50 was above 200 µM and the IC50 was above 200 µM.
On to `CCCCCCCCCCCCCCCCCCNc1nc(=O)n(C2CC(O)C(COP(=O)(O)OCC3OC(n4cc(C)c(=O)[nH]c4=O)CC3N=[N+]=[N-])O2)cc1F` (configuration not stated), for which the EC50 is 0.759 µM and the concentration for half-maximal inhibition (IC50) was 3.63 µM.
For the compound `CC(=O)O[C@@H]1CO[C@H]2O[C@H]3[C@@H](C(C=O)=C[C@H](O)[C@@H]4C5=C(C(C)C)CC[C@]5(C)CC[C@@]34C)[C@@]2(O)C1=O`, the EC50 was above 0.575 µM and the IC50 is 0.0759 µM.
The like results for `Nc1ccccc1-c1ccn[nH]1` were, in that order, above 200 µM and above 200 µM.
